This is an account of results in patent US10933049B2, “Mobilizing agents and uses therefor” (The University of Queensland, priority 2015, dated 2021).

Entries after “also recorded” stand apart in the source; their conditions may differ.

Assay [1] has as its system ERK and AKT signaling pathways. Kind of assay: Western analysis of ERK and AKT phosphorylation in B16 cells. The format is cell-based, murine. To be noted: cultured B16 cells, 0-60 min. As for the experimental part:
B16 cells were treated with recombinant human C3a (10 nM) or the selective mouse C3aR agonist WWGKKYRASKLGLAR [SEQ ID NO: 5] (Proctor et al., 2009; Wu et al., 2013) for the times indicated in the experiment. After treatment, crude protein extracts were obtained by disrupting the cells in RIPA lysis buffer. Samples were subjected to SDS-PAGE (Laemmli, 1970), then separated proteins electrotransferred (Towbin et al., 1979) to a PVDF membrane. Membranes were incubated with antibodies to anti-phospho-AKT, anti-total AKT (Cell Signaling, Danvers, Mass.), mouse anti-diphosphorylated ERK1/2 and rabbit anti-total ERK1/2 (Sigma-Aldrich) followed by fluorescently-labelled secondary antibodies (IR Dye 800CW-goat anti-mouse Ig and IR Dye 680LT anti-rabbit Ig; Li-Cor Biosciences). Immunoreactive bands were visualized by scanning on an Odyssey Imaging System (Li-Cor Biosciences) and the percentage phosphorylated protein relative to total protein determined using Odyssey V3.0 image analysis software.

Assay [2] addresses T1, C3aR (Mus musculus, UniProt O09047).
T1 construct: endogenous in cells; host or cells: B16-F0 murine melanoma cells (ATCC CRL6322)
T1 sequence (O09047 1-477): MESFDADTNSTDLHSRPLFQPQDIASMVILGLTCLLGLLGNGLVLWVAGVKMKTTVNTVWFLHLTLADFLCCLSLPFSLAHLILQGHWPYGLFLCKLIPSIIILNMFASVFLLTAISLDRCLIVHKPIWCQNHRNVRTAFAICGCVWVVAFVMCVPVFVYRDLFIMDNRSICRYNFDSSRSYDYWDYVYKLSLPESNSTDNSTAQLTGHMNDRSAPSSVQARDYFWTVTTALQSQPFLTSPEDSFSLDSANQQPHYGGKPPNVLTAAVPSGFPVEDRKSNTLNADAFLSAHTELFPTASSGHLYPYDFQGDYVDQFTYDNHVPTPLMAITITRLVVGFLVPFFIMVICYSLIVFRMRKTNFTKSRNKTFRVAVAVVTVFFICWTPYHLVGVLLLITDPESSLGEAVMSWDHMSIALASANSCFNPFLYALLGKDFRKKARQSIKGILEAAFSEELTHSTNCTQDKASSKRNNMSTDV
The assay is described as follows: Calcium mobilization in B16 cells. The settings on record: cultured B16 cells. The assay is classed as cell-based, murine.

Assay [3] concerns B16 melanoma. Kind of assay: B16 melanoma growth and survival in mice. The format is in vivo. To be noted: for survival (time until tumors reach maximal size): C3aRA vs vehicle. The protocol:
(§1) WT or C3aR^−/− mice were injected subcutaneously (s.c.) with B16-F0 melanoma (2.5×10^5 cells/mouse) or MC38 colon carcinoma (1×10^6 cells/mouse); female BALB/c mice were injected into the mammary fat pad with 4T1 mammary carcinoma (5×10^5 cells/mouse). Tumor growth was monitored daily from day 5 after tumor cell injection. For some experiments, C57BL/63 mice received daily injections of either C3aR antagonist (SB290157; VDM Biochemicals, Bedford Heights, Ohio; diluted in saline, 1 mg/kg/day i.p.,), C5aR antagonist (PMX53; produced in-house; 1 mg/kg/day) or vehicle only (0.9% saline or 5% glucose solution) control, commencing once tumors became palpable (approx. day 7 after tumor cell injection). For most experiments, mice were euthanized at day 14 (or once the largest tumor reached an area of approx. 200 mm^2), blood was collected by cardiac puncture, tumors, spleen, draining lymph nodes (inguinal, axillary and brachial) and femurs excised for FACS or immunostaining; tumors were weighed. For ‘survival’ studies, the time taken for each tumor to reach a pre-determined size (150 mm^2) was recorded, then mice euthanized.

The subject of assay [4] is 4T1 mammary carcinoma. Kind of assay: 4T1 mammary carcinoma growth in BALB/c mice. The assay is classed as in vivo. To be noted: female BALB/c mice, 1 mg/kg/day i.p. from day 0, vs saline. The protocol:
as §1, with “For some experiments, C57BL/63 mice received daily injections of either C3aR antagonist (SB290157; VDM Biochemicals, Bedford Heights, Ohio; diluted in saline, 1 mg/kg/day i.p.,), C5aR antagonist (PMX53; produced in-house; 1 mg/kg/day) or vehicle only (0.9% saline or 5% glucose solution) control, commencing once tumors became palpable (approx. day 7 after tumor cell injection).” left out

The test system of assay [5] is leukocyte populations. The assay is described as follows: Flow cytometric analysis of leukocyte populations in B16 tumor-bearing mice. The assay is classed as in vivo. To be noted: vs vehicle. The protocol: as §1
Single cell suspensions of blood, tumor, spleen and lymph node and bone marrow cell were prepared for surface staining with antibodies to mouse CD45, F4/80, CD11b, Ly6G, Gr-1, CD3, CD4, CD8a (all from Biolegend, San Diego, Calif.). Staining for Tregs was carried out using a FoxP3 Fix/Perm kit (BioLegend), according to manufacturer's instructions. For Th1, Th2, Th17 staining, cells were stimulated with phorbol 12-myristate 13-acetate (PMA; 50 ng/ml; Sigma) and ionomycin (1 μM; Sigma) in the presence of Brefeldin A (5 μg/ml; BioLegend) for 4 h at 37° C. After surface staining, cells were fixed and permeabilized for staining of intracellular cytokines; IL-4, IL-17A or IFN-γ (all from BioLegend). Flow cytometry was performed using an Accuri C6 flow cytometer (BD Biosciences) and data analysis with FlowJo software (Tree Star, Inc., Ashland, Oreg.). Details are provided in Supplemental Experimental Procedures.
(A flow cytometer gives signals particle by particle.)

For assay [6], the system named is B16 melanoma cells. The assay is described as follows: Cell migration assay (scratch) of B16 cells. The format is cell-based, murine. The settings on record: 10^-6 mol/L, 24 hours. The protocol: Cells were seeded at confluence (2×10^5 cells/cm^2) into a 24 well plate, adhered overnight and then confluent monolayers scratched with a pipette tip before being treated for 24 hours with C3aR agonist (10^−6 mol/L); control wells were incubated with medium alone or containing 5% FCS. Migration was quantified by measuring cell-free areas at day 0 and 24 hours using Image-J software (NIH, Bethesda, Md., USA).

In assay [7] the test system is B16 melanoma cells. The assay is described as follows: B16 tumor cell proliferation. The assay is classed as cell-based, murine.
The test system of assay [8] is CD11b+Ly6G+ neutrophils. Kind of assay: Neutrophil mobilization by G-CSF in wild-type and C3aR-/- mice. To be noted: 120 μg/kg i.v., 2 hours. The assay is classed as in vivo. The protocol: Wild-type, or C3aR^−/− mice were injected i.v. with G-CSF (Lenograstim; 120 μg/kg), or vehicle (saline). Blood was collected after 2 hours, and CD11b+Ly6G+ neutrophils analyzed using flow cytometry for CD11b+ and Ly6G+.

The mark [9] stands for this setting: established B16 melanoma, C57BL/6J mice, 1 mg/kg/day i.p. from day 7, vs vehicle.

In the case of “recombinant human C3a: recombinant human C3a used to stimulate B16 cells”, the “ERK and AKT signaling pathways” value in assay [1] is “activated”. Besides, in assay [2], the calcium mobilization response entry is “failed to initiate a calcium mobilization response”.

In the case of PMX53, the “reduction in tumor growth observed in C3aR-/- mice” value in assay [3] (C3aR-/- mice, B16 melanoma, 1 mg/kg/day s.c. once tumors palpable) is “not enhanced”. Further, the melanoma growth result in assay [3] (WT mice, B16 melanoma, 1 mg/kg/day s.c. once tumors palpable, vs vehicle) was “inhibited melanoma growth”.

`N=C(N)NCCC[C@H](NC(=O)COCC(c1ccccc1)c1ccccc1)C(=O)O` [SB290157, N^2-[(2,2-diphenylethoxy)acetyl]-1-arginine]: the “survival (time until tumors reach maximal size)” value in assay [3] (B16 melanoma) is “significantly improved”. In assay [3] (B16 melanoma, listed as C3aRA), the “survival (time until tumors reach maximal size)” value is “increased survival”. The excised tumor weights result in assay [3] (B16 melanoma, day 14, 1 mg/kg/day i.p. from day 7, vs vehicle) is “significantly smaller”. Further, in assay [3] (setting [9]), the tumor area result is reported as “significantly smaller than in the vehicle-treated control group” and the tumor progression entry is “dramatically retarded”. In addition, in assay [4], the tumor growth entry is “significant inhibition of tumor growth”. Further, in assay [5] (blood), the Tregs result is reported as “reduction” and the neutrophils result is “significant increase”. In assay [5] (bone marrow), the MDSC entry is on record as “significantly lower”, the monocytes entry was “significantly lower” and the neutrophils entry is reported as “significantly lower”. In addition, in assay [5] (draining lymph nodes), the Th2 cells result is “significantly increased”, the macrophages result was “not significantly different”, the monocytes entry is listed as “not significantly different” and the neutrophils result is “not significantly different”. Further, in assay [5] (draining lymph nodes), the “percentage of CD4+ T lymphocytes” value is listed as “significantly increased” and the “percentage of CD8+ T lymphocytes” value is “significantly increased”. In addition, in assay [5] (spleen), the “CD4+ lymphocytes” value was “significantly higher”, the MDSC result is recorded as “significantly lower”, the Th2 cells result is “significant increases” and the Treg cells result is reported as “significant increases”. Besides, in assay [5] (spleen), the proportion of macrophages result is “not significantly altered”, the proportion of monocytes entry is reported as “not significantly altered”, the proportion of neutrophils entry was “not significantly altered” and the total lymphocytes result is on record as “significantly higher”. Moreover, in assay [5] (tumor tissue, 1 mg/kg/day), the “percentage of CD4+ T lymphocytes” value is listed as “higher”, the “percentage of Th1 subset” value was “significantly increased”, the “percentage of Th2 subset” value was “significantly increased” and the “percentage of Th17 subset” value was “significantly increased”. Besides, in assay [5] (tumor tissue, 1 mg/kg/day), the “percentage of total T lymphocytes” value is “higher”, the “percentage of tumor-infiltrating neutrophils” value is recorded as “increased”, the “proportion of MDSC” value is recorded as “not significantly altered” and the tumor-associated macrophages result is reported as “reduced”.

For the molecule “WWGKKYRASKLGLAR (listed as Homo sapiens) [selective C3aR agonist]”, the cell migration result in assay [6] was “significantly increased”. In addition, the “ERK and AKT signaling pathways” value in assay [1] was “activated”. Moreover, in assay [7], the tumor cell proliferation entry is “no significant effect”. Besides, the calcium mobilization response entry in assay [2] was “failed to initiate a calcium mobilization response”.

B1: G-CSF: granulocyte-colony stimulating factor (Lenograstim), stem cell-mobilizing agent (protein, UniProt P09919 31-207, looked up)
Granulocyte …: TPLGPASSLPQSFLLKCLEQVRKIQGDGAALQEKLVSECATYKLCHPEELVLLGHSLGIPWAPLSSCPSQALQLAGCLSQLHSGLFLYQGLLQALEGISPELGPTLDTLQLDVADFATTIWQQMEELGMAPALQPTQGAMPAFASAFQRRAGGVLVASHLQSFLEVSYRVLRHLAQP
Regarding B1, in assay [8], the “blood CD11b+Ly6G+ (anti-tumor) neutrophils in C3aR-/- mice compared with saline” value is listed as “significantly enhanced; also recorded: significant (P=0.0079) increase” and the “mobilization of blood neutrophils, C3aR-/- compared with wild-type mice” value was “significantly (P=0.0056) greater mobilization of neutrophils”.
